Here are results for 13 compounds from PubChem BioAssay (NCI).

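Assay format: 96-well plates, 48-hour exposure. GI50 is the concentration that inhibits growth by half. Definition used: TGI = concentration required for complete inhibition of growth.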 Where only a bound is given, the exact number is not on record here.

The first assay concerns HOP-62 NSCLC. The experiment in a line: NCI-60 cell line screen, 48 h.
Regarding `CCCCCCCC(=O)SCC/C=C/[C@@H]1CC(=O)NCc2cc(ccn2)C2=N[C@@](C)(CS2)C(=O)N[C@@H](C(C)C)C(=O)O1`, the GI50 was 0.00958 µM.

With `CSc1nc(NC2OCC(OC(C)=O)C(OC(C)=O)C2OC(C)=O)c(N=CC=Nc2c(NC3OCC(OC(C)=O)C(OC(C)=O)C3OC(C)=O)nc(SC)[nH]c2=O)c(=O)[nH]1` (centres undefined), the TGI was above 92.6 µM.

As to `N#CC(C#N)=CNC(N)=S`, the TGI was above 100 µM.

Take `C[C@@H]1CCC2[C@@H](C)[C@@H](OCC(CO[C@H]3OC4O[C@@]5(C)CC[C@H]6[C@H](C)CCC([C@H]3C)[C@@]46OO5)OC(=O)CCC(=O)O)OC3O[C@@]4(C)CC[C@@H]1[C@]32OO4` (some centres undefined): the GI50 is 0.99 µM and the TGI was 22.1 µM.

Compound `COc1cc(OC)cc(-c2cc(=O)c3c(OC)c(OC)c(OC)c(OC)c3o2)c1` yielded a TGI above 100 µM.

With `O=C1OC(O)[C@@H]2[C@H]1[C@H]1CC[C@@H]2O1` (some centres undefined), the GI50 was above 100 µM and the TGI was above 100 µM.

With `O=C1c2cc3c(cc2-c2c1c1ccc(F)cc1c(=O)n2CCCNCCO)OCO3`, the GI50 is 0.0366 µM and the TGI is 0.496 µM.

For `CCCCCCCCC/C=C1\CCC(CN2CCOCC2)C1=O` (centres undefined), the TGI was determined as 26.4 µM.

As to `N=Nc1c(OC(=O)Nc2cccc(Cl)c2)[nH]c2ccccc12`, the TGI worked out at 13.1 µM.

For `Fc1cc2[nH]ncc2c2c3c(c(-c4cn[nH]c4)nc12)CCCC3`, the GI50 is 1.6 µM and the TGI is above 21 µM.

Consider `CCN(CC)c1ccc(-c2cc(-c3cc(OC)c(OC)c(OC)c3)nc(N3CCOCC3)c2C#N)cc1`, for which the GI50 is 2.24 µM and the TGI was found to be 16.5 µM.

`O=C(CCc1nnc2sc(-c3ccc(Cl)cc3Cl)nn12)c1nc2ncccc2[nH]1`: the GI50 was 2.18 µM and the TGI worked out at 6.77 µM.

Turning to `ClCc1cccc(Cn2cnc3ncnc(Cl)c32)c1`, the GI50 is 2.17 µM and the TGI was found to be 3.99 µM.

A further assay has as its system CAKI-1 renal. The experiment in a line: NCI-60 cell line screen, 48 h.
Turning to `CCCCCCCC(=O)SCC/C=C/[C@@H]1CC(=O)NCc2cc(ccn2)C2=N[C@@](C)(CS2)C(=O)N[C@@H](C(C)C)C(=O)O1`, the GI50 is 0.104 µM and the TGI worked out at 0.665 µM.

`CSc1nc(NC2OCC(OC(C)=O)C(OC(C)=O)C2OC(C)=O)c(N=CC=Nc2c(NC3OCC(OC(C)=O)C(OC(C)=O)C3OC(C)=O)nc(SC)[nH]c2=O)c(=O)[nH]1` (centres undefined) returned a TGI above 100 µM.

The compound `N#CC(C#N)=CNC(N)=S` yielded a TGI above 100 µM.

On to `C[C@@H]1CCC2[C@@H](C)[C@@H](OCC(CO[C@H]3OC4O[C@@]5(C)CC[C@H]6[C@H](C)CCC([C@H]3C)[C@@]46OO5)OC(=O)CCC(=O)O)OC3O[C@@]4(C)CC[C@@H]1[C@]32OO4` (some centres undefined), for which the GI50 was 0.022 µM and the TGI was determined as 0.477 µM.

For the compound `COc1cc(OC)cc(-c2cc(=O)c3c(OC)c(OC)c(OC)c(OC)c3o2)c1`, the TGI was above 100 µM.

Regarding `O=C1OC(O)[C@@H]2[C@H]1[C@H]1CC[C@@H]2O1` (some centres undefined), the GI50 was 71.9 µM and the TGI was above 100 µM.

Turning to `O=C1c2cc3c(cc2-c2c1c1ccc(F)cc1c(=O)n2CCCNCCO)OCO3`, the GI50 was 0.0628 µM and the TGI came out at 1.44 µM.

For the compound `CCCCCCCCC/C=C1\CCC(CN2CCOCC2)C1=O` (centres undefined), the TGI is 6.38 µM.

Regarding `N=Nc1c(OC(=O)Nc2cccc(Cl)c2)[nH]c2ccccc12`, the TGI was 15.2 µM.

As for `Fc1cc2[nH]ncc2c2c3c(c(-c4cn[nH]c4)nc12)CCCC3`, the GI50 is 0.398 µM and the TGI is 7.08 µM.

With `CCN(CC)c1ccc(-c2cc(-c3cc(OC)c(OC)c(OC)c3)nc(N3CCOCC3)c2C#N)cc1`, the GI50 is 0.366 µM and the TGI was above 53.2 µM.

For `O=C(CCc1nnc2sc(-c3ccc(Cl)cc3Cl)nn12)c1nc2ncccc2[nH]1`, the GI50 was 1.42 µM and the TGI is 3.15 µM.

Regarding `ClCc1cccc(Cn2cnc3ncnc(Cl)c32)c1`, the GI50 was 2.12 µM and the TGI came to 4.04 µM.

A further assay deals with DU-145 prostate. The experiment in a line: NCI-60 cell line screen, 48 h.
In the case of `CCCCCCCC(=O)SCC/C=C/[C@@H]1CC(=O)NCc2cc(ccn2)C2=N[C@@](C)(CS2)C(=O)N[C@@H](C(C)C)C(=O)O1`, the GI50 is 0.0138 µM and the TGI is above 33.3 µM.

Turning to `CSc1nc(NC2OCC(OC(C)=O)C(OC(C)=O)C2OC(C)=O)c(N=CC=Nc2c(NC3OCC(OC(C)=O)C(OC(C)=O)C3OC(C)=O)nc(SC)[nH]c2=O)c(=O)[nH]1` (centres undefined), the TGI is above 100 µM.

In the case of `N#CC(C#N)=CNC(N)=S`, the TGI is above 100 µM.

For `C[C@@H]1CCC2[C@@H](C)[C@@H](OCC(CO[C@H]3OC4O[C@@]5(C)CC[C@H]6[C@H](C)CCC([C@H]3C)[C@@]46OO5)OC(=O)CCC(=O)O)OC3O[C@@]4(C)CC[C@@H]1[C@]32OO4` (some centres undefined), the GI50 is 6.4 µM and the TGI amounted to 27.3 µM.

`COc1cc(OC)cc(-c2cc(=O)c3c(OC)c(OC)c(OC)c(OC)c3o2)c1` had a TGI above 100 µM.

As for `O=C1OC(O)[C@@H]2[C@H]1[C@H]1CC[C@@H]2O1` (some centres undefined), the GI50 was above 87.3 µM and the TGI is above 100 µM.

Take `O=C1c2cc3c(cc2-c2c1c1ccc(F)cc1c(=O)n2CCCNCCO)OCO3`: the GI50 is 0.0329 µM and the TGI stood at 1.09 µM.

`CCCCCCCCC/C=C1\CCC(CN2CCOCC2)C1=O` (centres undefined) showed a TGI of 17.5 µM.

`N=Nc1c(OC(=O)Nc2cccc(Cl)c2)[nH]c2ccccc12` returned a TGI of 20.3 µM.

Regarding `Fc1cc2[nH]ncc2c2c3c(c(-c4cn[nH]c4)nc12)CCCC3`, the GI50 is 1.09 µM and the TGI was 15.5 µM.

Consider `CCN(CC)c1ccc(-c2cc(-c3cc(OC)c(OC)c(OC)c3)nc(N3CCOCC3)c2C#N)cc1`, for which the GI50 was 2.18 µM and the TGI was above 100 µM.

With `O=C(CCc1nnc2sc(-c3ccc(Cl)cc3Cl)nn12)c1nc2ncccc2[nH]1`, the GI50 was 1.92 µM and the TGI stood at 3.63 µM.

With `ClCc1cccc(Cn2cnc3ncnc(Cl)c32)c1`, the GI50 is 15.2 µM and the TGI turned out to be 31 µM.

A further assay concerns RPMI-8226 leukemia. The experiment in a line: NCI-60 cell line screen, 48 h.
As to `CCCCCCCC(=O)SCC/C=C/[C@@H]1CC(=O)NCc2cc(ccn2)C2=N[C@@](C)(CS2)C(=O)N[C@@H](C(C)C)C(=O)O1`, the GI50 was 0.116 µM and the TGI was above 33.3 µM.

In turn, `CSc1nc(NC2OCC(OC(C)=O)C(OC(C)=O)C2OC(C)=O)c(N=CC=Nc2c(NC3OCC(OC(C)=O)C(OC(C)=O)C3OC(C)=O)nc(SC)[nH]c2=O)c(=O)[nH]1` (centres undefined) came in with a TGI above 100 µM.

`N#CC(C#N)=CNC(N)=S` came in with a TGI above 100 µM.

Regarding `C[C@@H]1CCC2[C@@H](C)[C@@H](OCC(CO[C@H]3OC4O[C@@]5(C)CC[C@H]6[C@H](C)CCC([C@H]3C)[C@@]46OO5)OC(=O)CCC(=O)O)OC3O[C@@]4(C)CC[C@@H]1[C@]32OO4` (some centres undefined), the GI50 was below 0.01 µM and the TGI stood at 16.5 µM.

The compound `COc1cc(OC)cc(-c2cc(=O)c3c(OC)c(OC)c(OC)c(OC)c3o2)c1` showed a TGI above 100 µM.

In the case of `O=C1OC(O)[C@@H]2[C@H]1[C@H]1CC[C@@H]2O1` (some centres undefined), the GI50 was 49.2 µM and the TGI is above 100 µM.

Turning to `O=C1c2cc3c(cc2-c2c1c1ccc(F)cc1c(=O)n2CCCNCCO)OCO3`, the GI50 is 0.0577 µM and the TGI was 0.571 µM.

As to `CCCCCCCCC/C=C1\CCC(CN2CCOCC2)C1=O` (centres undefined), the TGI was determined as 1.08 µM.

As to `N=Nc1c(OC(=O)Nc2cccc(Cl)c2)[nH]c2ccccc12`, the TGI stood at 10.7 µM.

Consider `Fc1cc2[nH]ncc2c2c3c(c(-c4cn[nH]c4)nc12)CCCC3`, for which the GI50 is 1.08 µM and the TGI is 13.6 µM.

In the case of `CCN(CC)c1ccc(-c2cc(-c3cc(OC)c(OC)c(OC)c3)nc(N3CCOCC3)c2C#N)cc1`, the GI50 was 0.0387 µM and the TGI was determined as 44.7 µM.

For `O=C(CCc1nnc2sc(-c3ccc(Cl)cc3Cl)nn12)c1nc2ncccc2[nH]1`, the GI50 was 1.8 µM and the TGI came to 7.59 µM.

Take `ClCc1cccc(Cn2cnc3ncnc(Cl)c32)c1`: the GI50 is 13.7 µM and the TGI amounted to 34.9 µM.

In a further assay the test system is NCI-H226 lung. The experiment in a line: NCI-60 cell line screen, 48 h.
For `CCCCCCCC(=O)SCC/C=C/[C@@H]1CC(=O)NCc2cc(ccn2)C2=N[C@@](C)(CS2)C(=O)N[C@@H](C(C)C)C(=O)O1`, the GI50 is 0.0818 µM and the TGI amounted to 1.62 µM.

For `CSc1nc(NC2OCC(OC(C)=O)C(OC(C)=O)C2OC(C)=O)c(N=CC=Nc2c(NC3OCC(OC(C)=O)C(OC(C)=O)C3OC(C)=O)nc(SC)[nH]c2=O)c(=O)[nH]1` (centres undefined), the TGI is above 88.8 µM.

In turn, `N#CC(C#N)=CNC(N)=S` showed a TGI above 100 µM.

For `C[C@@H]1CCC2[C@@H](C)[C@@H](OCC(CO[C@H]3OC4O[C@@]5(C)CC[C@H]6[C@H](C)CCC([C@H]3C)[C@@]46OO5)OC(=O)CCC(=O)O)OC3O[C@@]4(C)CC[C@@H]1[C@]32OO4` (some centres undefined), the GI50 was 0.933 µM and the TGI was found to be 40 µM.

With `COc1cc(OC)cc(-c2cc(=O)c3c(OC)c(OC)c(OC)c(OC)c3o2)c1`, the TGI was above 100 µM.

Regarding `O=C1OC(O)[C@@H]2[C@H]1[C@H]1CC[C@@H]2O1` (some centres undefined), the GI50 is above 79.4 µM and the TGI is above 100 µM.

For the compound `O=C1c2cc3c(cc2-c2c1c1ccc(F)cc1c(=O)n2CCCNCCO)OCO3`, the GI50 was 0.0411 µM and the TGI was found to be 0.192 µM.

For the compound `CCCCCCCCC/C=C1\CCC(CN2CCOCC2)C1=O` (centres undefined), the TGI amounted to 15.3 µM.

In turn, `N=Nc1c(OC(=O)Nc2cccc(Cl)c2)[nH]c2ccccc12` returned a TGI of 34.5 µM.

Turning to `Fc1cc2[nH]ncc2c2c3c(c(-c4cn[nH]c4)nc12)CCCC3`, the GI50 is 1.28 µM and the TGI was 5.85 µM.

As for `CCN(CC)c1ccc(-c2cc(-c3cc(OC)c(OC)c(OC)c3)nc(N3CCOCC3)c2C#N)cc1`, the GI50 is 2.34 µM and the TGI is 42.2 µM.

Consider `O=C(CCc1nnc2sc(-c3ccc(Cl)cc3Cl)nn12)c1nc2ncccc2[nH]1`, for which the GI50 was 1.7 µM and the TGI is 3.66 µM.

In the case of `ClCc1cccc(Cn2cnc3ncnc(Cl)c32)c1`, the GI50 was 3.19 µM and the TGI came to 8.67 µM.
